From ChEMBL document CHEMBL1146890, “Arylaminoethyl carbamates as a novel series of potent and selective cathepsin S inhibitors” (Bioorg Med Chem Lett, 2006)

Key:
Assay type in all cases: ADME, organism-based
[1] = Oral bioavailability in Wistar rat at 10 mg/kg, po; conditions: in vivo
[2] = AUC in Wistar rat at 10 mg/kg, po; set-up: dose 10 mg/kg, route oral; conditions: plasma
[3] = Cmax in Wistar rat at 10 mg/kg, po; set-up: dose 10 mg/kg, route oral; conditions: in vivo
[4] = Half life in Wistar rat at 10 mg/kg, po; set-up: dose 10 mg/kg, route oral; conditions: in vivo
[5] = Half life in Wistar rat at 3 mg/kg, iv; set-up: dose 3 mg/kg, route intravenous; conditions: in vivo
[6] = Clearance in Wistar rat at 3 mg/kg, iv; set-up: dose 3 mg/kg, route intravenous; conditions: in vivo
[7] = Volume of distribution in Wistar rat at 3 mg/kg, iv; set-up: dose 3 mg/kg, route intravenous; conditions: in vivo, read-out: Vdss

Compound | bioavailability [1] | AUC [2] | Cmax [3] | half-life [4] | half-life [5] | clearance [6] | Vd [7]
C[C@@H](CN1CC(C)(C)c2cc(F)ccc21)NC(=O)[C@H](CC1CCCCC1)NC(=O)N1CCOCC1 | 4% | 133 ng·h/mL | 118 nM | 0.85 h | 0.717 h | 52 mL/min/kg | 1.76 L/kg
C[C@@H](CN1c2ccc(F)cc2CC1(C)C)NC(=O)O[C@@H](CC1CCCCC1)C(=O)N1CCOCC1 | 23% | 733 ng·h/mL | 513 nM | 1.03 h | 1.37 h | 52 mL/min/kg | 3.1 L/kg
C[C@@H](CN1CC(C)(C)c2cc(F)ccc21)NC(=O)O[C@@H](CC1CCCCC1)C(=O)N1CCOCC1 | 42% | 1350 ng·h/mL | 774 nM | 1.15 h | 1.67 h | 52 mL/min/kg | 4.1 L/kg
